In patent publication US4464396A, “4-[N-(Hydroxybenzyl)aminomethyl]cyclohexane-1-carboxylic acid” (Kureha Kagaku Kogyo Kabushiki Kaisha, priority 1981, dated 1984):

Legend:
[1] = tested on: Rat's polynuclear leukocyte migration; assay: Inhibitory effect on polynuclear leukocyte migration (Boyden method); type: cell-based; settings: rat polynuclear leukocytes, read-out: Concentration of 50% inhibition of polynuclear leukocyte migration IC50
Source text: (1) Examination for inhibitory effect on polynuclear leukocyte migration:
Rat's polynuclear leukocyte migration was examined by the Boyden method.

[2] = Acute toxicity, peroral administration of aqueous solution to mice; settings: mouse, in vivo, po, female JCL-ICR mice 5 to 6 weeks old
Source text: (2) Examination for acute toxicity:
Acute toxicity was examined by administering perorally an aqueous solution of each Specimen to female JCL-ICR mice 5 to 6 weeks after their birth.

Row | SMILES | IC50 [1] [µM] | LD50 [2] [mg/kg]
1 | COc1ccc2c(c1)c(CC(=O)O)c(C)n2C(=O)c1ccc(Cl)cc1 [III] | 240 | 
2 | O=C(O)[C@H]1CC[C@H](CNCc2ccc(O)c(O)c2)CC1 [II] | 32 | > 3000
3 | O=C(O)[C@H]1CC[C@H](CNCc2ccccc2O)CC1 [I] | 340 | > 3000
